# Patent US10005767B2, “Compositions and methods for inhibition of the JAK pathway” (Rigel Pharmaceuticals, Inc., priority 2009, dated 2018)
# pIC50: −log10 of the molar value.
# System: human primary T-cells, IL-2 stimulated proliferation (JAK-1 and JAK-3 dependent; reported as JAK3 activity)
# Assay: Human primary T-cell proliferation stimulated by IL-2 (Example 3)
# Type: cell-based
# Details: tested under conditions described in Example 3 (IL-2 stimulated human primary T-cell proliferation); read-out: ability to inhibit JAK3 activity, IC50 range (Table V)
# Method in brief: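 Peripheral-blood human T-cells pre-activated via TCR/CD28, IL-2-starved overnight, then cultured 72 h at 37 °C with compound in Yssel's medium containing IL-2 (80 U/mL in cell suspension). Proliferation read as viable-cell ATP by CellTiter-Glo luminescence; reduction versus control taken as JAK pathway inhibition.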
row,SMILES,pIC50
1,"Cc1ccc(Nc2ncc(C)c(Nc3ccc4oc(=O)[nH]c4c3)n2)cc1F [Compound I-363, N2-(3-fluoro-4-methyl)phenyl-5-methyl-N4-(2-oxo-2,3-dihydro-1,3-benzoxazol-5-yl)-2,4-pyrimidinediamine]",> 6.30
2,"Cc1ccc(Nc2ncc(C)c(Nc3ccc4oc(=O)[nH]c4c3)n2)cc1Cl [Compound I-364, N2-(3-chloro-4-methyl)phenyl-5-methyl-N4-(2-oxo-2,3-dihydro-1,3-benzoxazol-5-yl)-2,4-pyrimidinediamine]",> 6.30
3,"Cc1cnc(Nc2cc(C)c(C)c(C)c2)nc1Nc1ccc2oc(=O)[nH]c2c1 [Compound I-365, N2-(3,4,5-trimethyl)phenyl-5-methyl-N4-(2-oxo-2,3-dihydro-1,3-benzoxazol-5-yl)-2,4-pyrimidinediamine]",> 6.30
4,"Cc1cnc(Nc2ccc(OC(F)(F)F)c(Cl)c2)nc1Nc1ccc2oc(=O)[nH]c2c1 [Compound I-366, N2-(3-chloro-4-trifluoromethoxy)phenyl-5-methyl-N4-(2-oxo-2,3-dihydro-1,3-benzoxazol-5-yl)-2,4-pyrimidinediamine]",> 6.30
5,"Cc1cnc(Nc2ccc(SC(F)(F)F)cc2)nc1Nc1ccc2oc(=O)[nH]c2c1 [Compound I-367, N2-(4-trifluoromethylthio)phenyl-5-methyl-N4-(2-oxo-2,3-dihydro-1,3-benzoxazol-5-yl)-2,4-pyrimidinediamine]",> 6.30
6,"Cc1cnc(Nc2cccc(F)c2)nc1Nc1ccc2oc(=O)[nH]c2c1 [Compound I-368, N2-(3-fluoro)phenyl-5-methyl-N4-(2-oxo-2,3-dihydro-1,3-benzoxazol-5-yl)-2,4-pyrimidinediamine]",> 6.30
7,"COc1c(C)cc(Nc2ncc(C)c(Nc3ccc4oc(=O)[nH]c4c3)n2)cc1C [Compound I-369, N2-(3,5-dimethyl-4-methoxy)phenyl-5-methyl-N4-(2-oxo-2,3-dihydro-1,3-benzoxazol-5-yl)-2,4-pyrimidinediamine]",> 6.30
8,"Cc1cnc(Nc2cc(C(N)=O)cc(C(F)(F)F)c2)nc1Nc1ccc2oc(=O)[nH]c2c1 [Compound I-370, N2-(3-carboxamide-5-trifluoromethyl)phenyl-5-methyl-N4-(2-oxo-2,3-dihydro-1,3-benzoxazol-5-yl)-2,4-pyrimidinediamine]",> 6.30
9,"COc1c(C(C)C)cc(Nc2ncc(C)c(Nc3ccc4oc(=O)[nH]c4c3)n2)cc1C(C)C [Compound I-371, N2-(3,5-diisopropyl-4-methoxy)phenyl-5-methyl-N4-(2-oxo-2,3-dihydro-1,3-benzoxazol-5-yl)-2,4-pyrimidinediamine]",5.30 to 6.30
10,"Cc1cnc(Nc2cc(OC(C)C)cc(C(F)(F)F)c2)nc1Nc1ccc2oc(=O)[nH]c2c1 [Compound I-372, N2-(3-isopropoxy-5-trifluoromethyl)phenyl-5-methyl-N4-(2-oxo-2,3-dihydro-1,3-benzoxazol-5-yl)-2,4-pyrimidinediamine]",> 6.30
11,"COc1ccc(Nc2ncc(C)c(Nc3ccc4oc(=O)[nH]c4c3)n2)cc1C#N [Compound I-373, N2-(3-cyano-4-methoxy)phenyl-5-methyl-N4-(2-oxo-2,3-dihydro-1,3-benzoxazol-5-yl)-2,4-pyrimidinediamine]",> 6.30
12,"Cc1cnc(Nc2cc(C)c(F)c(C)c2)nc1Nc1ccc2oc(=O)[nH]c2c1 [Compound I-374, N2-(3,5-dimethyl-4-fluoro)phenyl-5-methyl-N4-(2-oxo-2,3-dihydro-1,3-benzoxazol-5-yl)-2,4-pyrimidinediamine]",> 6.30
13,"Cc1cnc(Nc2ccc(OC(F)(F)F)c(F)c2)nc1Nc1ccc2oc(=O)[nH]c2c1 [Compound I-376, N2-(3-fluoro-4-trifluoromethoxy)phenyl-5-methyl-N4-(2-oxo-2,3-dihydro-1,3-benzoxazol-5-yl)-2,4-pyrimidinediamine]",> 6.30
14,"Cc1cnc(Nc2cc(Cl)cc(OC(F)(F)F)c2)nc1Nc1ccc2oc(=O)[nH]c2c1 [Compound I-378, N2-(3-chloro-5-trifluoromethoxy)phenyl-5-methyl-N4-(2-oxo-2,3-dihydro-1,3-benzoxazol-5-yl)-2,4-pyrimidinediamine]",> 6.30
